Results published in US20260083131A1, “AN HERBICIDAL COMBINATION, COMPOSITION AND METHOD OF CONTROLLING WEEDS USING THE SAME” (priority 2022, published 2026).

Experiments:
[1] = system: Viola arvensis, Bromus spp., Lolium spp., Agropyron repens and Urtica urens; conditions: reported by Hoechst et al., 1991; cited from earlier work
Borreria verticillata = experiment: Greenhouse trial, post-emergence herbicidal activity on Borreria verticillata; assay type: in vivo
Description: (§1) The expected efficacy of a combination of L-glufosinate ammonium and the other herbicides was calculated using the well-established Colby method. Any difference between the observed and “expected” efficacy could be attributed to synergy between the two compounds.
(§2) In the Colby method, the expected (or predicted) response of a combination of herbicides is calculated by taking the product of the observed response for each individual component of the combination when applied alone, divided by 100, and subtracting this value from the sum of the observed response for each component when applied alone. An unexpected enhancement in efficacy of the combination is then determined by comparing the observed response of the combination to the expected (or predicted) response as calculated from the observed response of each individual component alone. If the observed response of the combination is greater than the expected (or predicted) response, or stated conversely, if the difference between the observed and expected response is greater than zero, then the combination is said to be synergistic or unexpectedly effective (Colby, S. R., Weeds, 1967(15), p. 20-22). The Colby method requires only a single dose of each herbicide applied alone and the mixture of both doses. The formula used to calculate the expected efficacy (EE) which was compared with the observed efficacy (OE) to determine the efficacy of the present disclosure is explained hereinbelow:
(§3) Methodology: Greenhouse trials were conducted to evaluate the efficacy of the combination comprising L-glufosinate ammonium and imidazolinone herbicides—imazethapyr, imazamox, imazapic and imazapic+imazapyr—on weeds Borreria verticilata, Eleusine indica, Brachiaria decumbens, Spermacoce latifolia and Glycine max.
(§4) The soil used was sandy clay loam—sand: 68.0%; silt: 8.0%; clay: 24.0%.
(§5) All treatments were in 3 replications per treatment with a spray volume of about 150 L/ha.
The percentage efficacy was calculated after 3, 7, 14, 21, 28 and 35 days of applications (DAA). The target weed was Borreria verticillata, and the concentration of the herbicide and the results are recorded in Table 1.
The percentage efficacy was calculated after 3 days of applications (DAA). The target weed was Borreria verticillata, and the concentration of the herbicide and the results are recorded in Table 2.
The percentage efficacy was calculated after 3, 7, 14, 21, 28 and 35 days of applications (DAA). The target weed was Borreria verticillata, and the concentration of the herbicide and the results are recorded Table 7.

[2] = system: weedy Brachiaria decumbens; experiment: Greenhouse trial, post-emergence herbicidal activity on Brachiaria decumbens; assay type: in vivo; conditions: Table 3
Description: as §1, §2, §3, §4, §5
The percentage efficacy was calculated after 7, 14, 21, 28, 35 days of applications (DAA). The target weed was weedy Brachiaria decumbens, and the concentration of the herbicide and the results are recorded in Table 3.

weedy Eleusine indica = experiment: Greenhouse trial, post-emergence herbicidal activity on Eleusine indica; assay type: in vivo; conditions: Table 4
Description: as §1, §2, §3, §4, §5
The percentage efficacy was calculated after 7, 14, 21, 28, 35 days of applications (DAA). The target weed was weedy Eleusine indica, and the concentration of the herbicide and the results are recorded in Table 4.

Spermacoce latifolia = experiment: Greenhouse trial, post-emergence herbicidal activity on Spermacoce latifolia; assay type: in vivo; conditions: Table 5
Description: as §1, §2, §3, §4, §5
The percentage efficacy was calculated after 14, 21, 28, 35 days of applications (DAA). The target weed was Spermacoce latifolia, and the concentration of the herbicide and the results are recorded Table 5.

weedy Glycine max = experiment: Greenhouse trial, post-emergence herbicidal activity on Glycine max; assay type: in vivo; conditions: Table 6
Description: as §1, §2, §3, §4, §5
The percentage efficacy was calculated after 14, 21, 28, 35 days of applications (DAA). The target weed was weedy Glycine max, and the concentration of the herbicide and the results are recorded in Table 6.

CP(=O)(O)CCC(N)C(=O)O (racemic) [glufosinate, DL-homoalanin-4-yl(methyl)phosphinic acid]
control of weed species Viola arvensis, Bromus spp., Lolium spp., Agropyron repens and Urtica urens [1]: either not combated, or only weakly combated

COCc1cnc(C2=NC(C)(C(C)C)C(=O)N2)c(C(=O)O)c1 (stereo not drawn) [Imazamox, imazamox]
Observed efficacy (%) of Imazamox (21 g a.i./ha) (Borreria verticillata; 3 DAA, 21 g a.i./ha, Table 2): 10%

Cc1cnc(C2=NC(=O)C(C)(C(C)C)N2)c(C(=O)O)c1 (stereo not drawn) [Imazapic, imazapic]
Observed efficacy (%) of Imazapic (59 g a.i./ha) (Borreria verticillata; 3 DAA, Table 1): 10% | Observed efficacy (%) of Imazapic (59 g a.i./ha) (Borreria verticillata; 7 DAA, Table 1): 20% | Observed efficacy (%) of Imazapic (59 g a.i./ha) (Borreria verticillata; 14 DAA, Table 1): 35% | Observed efficacy (%) of Imazapic (59 g a.i./ha) (Borreria verticillata; 21 DAA, Table 1): 30% | Observed efficacy (%) of Imazapic (59 g a.i./ha) (Borreria verticillata; 28 DAA, Table 1): 40% | Observed efficacy (%) of Imazapic (59 g a.i./ha) (Borreria verticillata; 35 DAA, Table 1): 60%

CCc1cnc(C2=NC(C)(C(C)C)C(=O)N2)c(C(=O)O)c1 (stereo not drawn) [Imazethapyr, imazethapyr]
Observed efficacy (%) of Imazethapyr, (75 g a.i./ha) ([2]; 7 DAA): 10% | Observed efficacy (%) of Imazethapyr, (75 g a.i./ha) ([2]; 14 DAA): 10% | Observed efficacy (%) of Imazethapyr, (75 g a.i./ha) ([2]; 21 DAA): 15% | Observed efficacy (%) of Imazethapyr, (75 g a.i./ha) ([2]; 28 DAA): 10% | Observed efficacy (%) of Imazethapyr, (75 g a.i./ha) ([2]; 35 DAA): 5% | Observed efficacy (%) of Imazethapyr, (75 g a.i./ha) (weedy Eleusine indica; 7 DAA): 8.3% | Observed efficacy (%) of Imazethapyr, (75 g a.i./ha) (weedy Eleusine indica; 14 DAA): 12% | Observed efficacy (%) of Imazethapyr, (75 g a.i./ha) (weedy Eleusine indica; 21 DAA): 12.7% | Observed efficacy (%) of Imazethapyr, (75 g a.i./ha) (weedy Eleusine indica; 28 DAA): 12.7% | Observed efficacy (%) of Imazethapyr, (75 g a.i./ha) (weedy Eleusine indica; 35 DAA): 10% | Observed efficacy (%) of Imazethapyr, (75 g a.i./ha) (Spermacoce latifolia; 14 DAA): 30% | Observed efficacy (%) of Imazethapyr, (75 g a.i./ha) (Spermacoce latifolia; 21 DAA): 36.7% | Observed efficacy (%) of Imazethapyr, (75 g a.i./ha) (Spermacoce latifolia; 28 DAA): 30% | Observed efficacy (%) of Imazethapyr, (75 g a.i./ha) (Spermacoce latifolia; 35 DAA): 26.7% | Observed efficacy (%) of Imazethapyr, (75 g a.i./ha) (weedy Glycine max; 14 DAA): 10% | Observed efficacy (%) of Imazethapyr, (75 g a.i./ha) (weedy Glycine max; 21 DAA): 20% | Observed efficacy (%) of Imazethapyr, (75 g a.i./ha) (weedy Glycine max; 28 DAA): 20% | Observed efficacy (%) of Imazethapyr, (75 g a.i./ha) (weedy Glycine max; 35 DAA): 15%

CP(=O)(O)CC[C@H](N)C(=O)O.N [L-glufosinate ammonium, ammonium (2S)-2-amino-4-(methylphosphinato)butyric acid]
Observed efficacy (%) of L-glufosinate ammonium (Glufosinate-P-ammonium) (150 g a.i./ha) (Borreria verticillata; 3 DAA, Table 1): 50% | Observed efficacy (%) of L-glufosinate ammonium (Glufosinate-P-ammonium) (150 g a.i./ha) (Borreria verticillata; 3 DAA, Table 2): 55% | Observed efficacy (%) of L-glufosinate ammonium (Glufosinate-P-ammonium) (150 g a.i./ha) (Borreria verticillata; 3 DAA, Table 7): 50% | Observed efficacy (%) of L-glufosinate ammonium (Glufosinate-P-ammonium) (150 g a.i./ha) (Borreria verticillata; 7 DAA, Table 1): 80% | Observed efficacy (%) of L-glufosinate ammonium (Glufosinate-P-ammonium) (150 g a.i./ha) (Borreria verticillata; 7 DAA, Table 7): 80% | Observed efficacy (%) of L-glufosinate ammonium (Glufosinate-P-ammonium) (150 g a.i./ha) (Borreria verticillata; 14 DAA, Table 1): 95% | Observed efficacy (%) of L-glufosinate ammonium (Glufosinate-P-ammonium) (150 g a.i./ha) (Borreria verticillata; 14 DAA, Table 7): 95% | Observed efficacy (%) of L-glufosinate ammonium (Glufosinate-P-ammonium) (150 g a.i./ha) (Borreria verticillata; 21 DAA, Table 1): 90% | Observed efficacy (%) of L-glufosinate ammonium (Glufosinate-P-ammonium) (150 g a.i./ha) (Borreria verticillata; 21 DAA, Table 7): 90% | Observed efficacy (%) of L-glufosinate ammonium (Glufosinate-P-ammonium) (150 g a.i./ha) (Borreria verticillata; 28 DAA, Table 1): 90% | Observed efficacy (%) of L-glufosinate ammonium (Glufosinate-P-ammonium) (150 g a.i./ha) (Borreria verticillata; 28 DAA, Table 7): 90% | Observed efficacy (%) of L-glufosinate ammonium (Glufosinate-P-ammonium) (150 g a.i./ha) (Borreria verticillata; 35 DAA, Table 1): 85% | Observed efficacy (%) of L-glufosinate ammonium (Glufosinate-P-ammonium) (150 g a.i./ha) (Borreria verticillata; 35 DAA, Table 7): 85% | Observed efficacy (%) of L-glufosinate ammonium, (150 g a.i./ha) ([2]; 7 DAA): 46% | Observed efficacy (%) of L-glufosinate ammonium, (150 g a.i./ha) ([2]; 14 DAA): 54.3% | Observed efficacy (%) of L-glufosinate ammonium, (150 g a.i./ha) ([2]; 21 DAA): 53.3% | Observed efficacy (%) of L-glufosinate ammonium, (150 g a.i./ha) ([2]; 28 DAA): 48.3% | Observed efficacy (%) of L-glufosinate ammonium, (150 g a.i./ha) ([2]; 35 DAA): 42% | Observed efficacy (%) of L-glufosinate ammonium, (150 g a.i./ha) (weedy Eleusine indica; 7 DAA): 43.3% | Observed efficacy (%) of L-glufosinate ammonium, (150 g a.i./ha) (weedy Eleusine indica; 14 DAA): 41.3% | Observed efficacy (%) of L-glufosinate ammonium, (150 g a.i./ha) (weedy Eleusine indica; 21 DAA): 37.3% | Observed efficacy (%) of L-glufosinate ammonium, (150 g a.i./ha) (weedy Eleusine indica; 28 DAA): 28.3% | Observed efficacy (%) of L-glufosinate ammonium, (150 g a.i./ha) (weedy Eleusine indica; 35 DAA): 25.3% | Observed efficacy (%) of L-glufosinate ammonium, (150 g a.i./ha) (Spermacoce latifolia; 14 DAA): 56.7% | Observed efficacy (%) of L-glufosinate ammonium, (150 g a.i./ha) (Spermacoce latifolia; 21 DAA): 56.7% | Observed efficacy (%) of L-glufosinate ammonium, (150 g a.i./ha) (Spermacoce latifolia; 28 DAA): 58.3% | Observed efficacy (%) of L-glufosinate ammonium, (150 g a.i./ha) (Spermacoce latifolia; 35 DAA): 58.3% | Observed efficacy (%) of L-glufosinate ammonium, (150 g a.i./ha) (weedy Glycine max; 14 DAA): 60% | Observed efficacy (%) of L-glufosinate ammonium, (150 g a.i./ha) (weedy Glycine max; 21 DAA): 63.3% | Observed efficacy (%) of L-glufosinate ammonium, (150 g a.i./ha) (weedy Glycine max; 28 DAA): 63.3% | Observed efficacy (%) of L-glufosinate ammonium, (150 g a.i./ha) (weedy Glycine max; 35 DAA): 52.7%
